These results are taken from publication PMC3676766, “New Radioligands for Describing the Molecular Pharmacology of MT1 and MT2 Melatonin Receptors” (International Journal of Molecular Sciences, 2013).

Assay [1] has as its target T1, hMT1 (Homo sapiens, UniProt P48039).
T1 construct: expressed in transfected cells; membranes or whole cells
The assay can be described thus: [35S]-GTPγS binding assay, hMT1. It counts as biochemical. Conditions: for [35S]-GTPγS Emax (%) / Emax: percentage of melatonin (1 μM = 100%); for EC50: mean ± SEM, read-out: [35S]-GTPγS pEC50 (converted). As to the method: (§1) CHO-K1 cell lines stably expressing the human MT1 or MT2 receptors were grown to confluence, harvested in PBS buffer (Gibco, Invitrogen, Saint-Aubin, France) containing 5 mM EDTA, and centrifuged at 1,000 g for 20 min (4 °C). The resulting pellet was suspended in 5 mM Tris/HCl (pH 7.4) containing 2 mM EDTA and homogenized using Kinematicapolytron. […] Protein content was determined according to Bradford using the Bio-Rad kit (Bio-Rad SA, Ivry-sur-Seine, France).
(§2) For the [^35S]-GTPγS binding assay, the membranes and compounds were diluted in the binding buffer (20 mM Hepes pH 7.4, 100 mM NaCl, 3 mM MgCl2, 3 μM GDP) in the presence of 20 μg/mL saponin in order to enhance the agonist-induced stimulation. Incubation was started by adding 0.1 nM [^35S]-GTPγS to the membranes and ligands in a final volume of 250 μL and allowed to continue for 60 min at room temperature. Non-specific binding was assessed using non-radiolabeled GTPγS (10 μM). Reactions were stopped by rapid filtration through GF/B unifilters pre-soaked with distilled water, followed by three successive washes with ice-cold buffer.
(In general: GTPγS resists hydrolysis and so accumulates on activated G proteins.)

Assay [2] addresses T2, hMT2 (Homo sapiens, UniProt P49286).
T2 construct: expressed in transfected cells; membranes or whole cells
T2 sequence (P49286 1-362): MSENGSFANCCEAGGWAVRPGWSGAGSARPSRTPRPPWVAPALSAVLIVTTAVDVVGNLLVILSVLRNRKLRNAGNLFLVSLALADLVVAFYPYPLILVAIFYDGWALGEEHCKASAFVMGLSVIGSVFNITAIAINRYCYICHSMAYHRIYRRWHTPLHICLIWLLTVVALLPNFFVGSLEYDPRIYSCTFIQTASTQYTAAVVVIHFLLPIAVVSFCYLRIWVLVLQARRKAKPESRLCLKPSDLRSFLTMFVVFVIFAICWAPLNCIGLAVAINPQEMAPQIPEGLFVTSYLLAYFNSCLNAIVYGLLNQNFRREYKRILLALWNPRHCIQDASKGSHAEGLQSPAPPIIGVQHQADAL
In words: [35S]-GTPγS binding assay, hMT2. In kind it is biochemical. Conditions: for [35S]-GTPγS Emax (%) / Emax: percentage of melatonin (1 μM = 100%); for EC50: mean ± SEM, read-out: [35S]-GTPγS pEC50 (converted). The method, then: as §1, §2

For assay [3], the target named is T1, hMT1. In words: HTRF (TR-FRET) cAMP assay, CHO-K1 cells expressing hMT1. It counts as cell-based. Conditions: 5 μM forskolin; for EC50: read-out: TR-FRET-cAMP pEC50 (converted). As to the method:
(§3) Cellular cAMP production was measured using cAMP dynamic HTRF kits (Cisbio Bioassays, Bedford, MA, USA) according to the manufacturer’s instructions. CHO-K1 cells stably expressing the hMT1 or hMT2 receptor were grown to confluence, harvested in PBS buffer containing 5 mM EDTA, and centrifuged at 100× g for 10 min (4 °C). […] Next, 15 μL of cAMP-d2 conjugate and 15 μL of anti-cAMP-EuK conjugate in lysis buffer were incubated for 30 min at room temperature. […] Non-specific binding was assessed using 100 μM non-labeled cAMP. The data were analyzed using the program PRISM to yield the EC50 and Emax.

The target of assay [4] is T2, hMT2. The assay can be described thus: HTRF (TR-FRET) cAMP assay, CHO-K1 cells expressing hMT2. In kind it is cell-based. As to conditions: 5 μM forskolin; for EC50 / TR-FRET-cAMP Emax (%): hMT2; for EC50: read-out: TR-FRET-cAMP pEC50 (converted). The method, then: as §3
A general note: In TR-FRET formats the signal depends on donor and acceptor labels being close together.

The target of assay [5] is T1, hMT1. The assay can be described thus: [125I]-2IMLT competition binding, CHO-K1 membranes, hMT1. As to conditions: 20 pM [125I]-2IMLT, 2 h 37 °C, mean ± SEM, read-out: Affinity pKi (converted). As to the method:
(§4) CHO-K1 cell lines stably expressing the human MT1 or MT2 receptors were grown to confluence, harvested in PBS buffer (Gibco, Invitrogen, Saint-Aubin, France) containing 5 mM EDTA, and centrifuged at 1,000 g for 20 min (4 °C). The resulting pellet was suspended in 5 mM Tris/HCl (pH 7.4) containing 2 mM EDTA and homogenized using Kinematicapolytron. The homogenate was then centrifuged (20,000 g, 30 min, 4 °C) and the resulting pellet suspended in 75 mM Tris/HCl (pH 7.4) containing 2 mM EDTA and 12.5 mM MgCl2. Protein content was determined according to Bradford using the Bio-Rad kit (Bio-Rad SA, Ivry-sur-Seine, France). Aliquots of membrane preparations were stored in re-suspension buffer (75 mM Tris/HCl pH 7.4, 2 mM EDTA, 12.5 mM MgCl2) at −80 °C until use.
(§5) The assays were described previously. […] The results were expressed as the inhibition constant Ki, taking into account the concentration of radioligand used in each experiment. Non-specific binding was defined using 10 μM melatonin. The reaction was stopped by rapid filtration through GF/B unifilters, followed by three successive washes with ice-cold buffer. The data were analyzed using the program PRISM (GraphPad Software Inc., San Diego, CA, USA).

In assay [6] the target is T2, hMT2. The assay can be described thus: [125I]-2IMLT competition binding, CHO-K1 membranes, hMT2. Conditions: for Difference in affinity MT2 versus MT1: Ki/pKi better for MT2 than for MT1; for Ki: hMT2. As to the method: as §4, §5
Assay [7] has as its system standard set of receptors and a small number of enzymatic targets. The assay can be described thus: Standard selectivity procedure (Cerep panel). In kind it is binding. Conditions: at 10 μM, cold compounds, transporters, channels, caspase-3, EGFR kinase, PKCα.
From the text: […]

Assay [8] concerns the target T1, hMT1. In words: Saturation binding of iodinated radioligands, CHO-K1-hMT1 membranes. As to conditions: Scatchard. The method, then:
as §4
The assays were performed in 96-well plates in 250 μL binding buffer (50 mM Tris/HCl pH 7.4, 5 mM MgCl2, 1 mM EDTA, plus BSA 0.1% for [^125I]-DIV880). The membranes, hMT1 and hMT2, were used at a final concentration of 30 μg of proteins/mL for all radioactive compounds. […]
(§6) The data were analyzed using the program PRISM (GraphPad Software Inc., San Diego, CA, USA). For the saturation assay, the binding site density (Bmax) and dissociation constant for the radioligand (Kd) were calculated according to the Scatchard method.

The target of assay [9] is T2, hMT2. In words: Saturation binding of iodinated radioligands, CHO-K1-hMT2 membranes. As to conditions: Scatchard; for Bmax: saturation. As to the method: as §4
The assays were performed in 96-well plates in 250 μL binding buffer (50 mM Tris/HCl pH 7.4, 5 mM MgCl2, 1 mM EDTA, plus BSA 0.1% for [^125I]-DIV880). The membranes, hMT1 and hMT2, were used at a final concentration of 30 μg of proteins/mL for all radioactive compounds. For all protocols, the reaction was stopped by rapid filtration through GF/B unifilters (PEI 0.1% treated for [^125I]-DIV880), followed by three successive washes with ice-cold buffer (50 mM Tris/HCl, pH 7.4).
as §6

Where [10] appears, read: CHO-K1, read-out: TR-FRET-cAMP Emax (%), hMT1.
The mark [11] stands for this setting: CHO-K1, read-out: TR-FRET-cAMP Emax (%), hMT2.
The mark [12] stands for this setting: 20 pM [125I]-2IMLT, 2 h 37 °C, mean ± SEM, read-out: Affinity pKi (converted).
Where [13] appears, read: hMT1, read-out: [35S]-GTPγS Emax (%).
Setting [14] is: CHO-K1, hMT2, read-out: TR-FRET-cAMP Emax (%).

Structures are written as SMILES. “And” between values parts separate entries of the source, which are not always exact repeats. Identical values can stand only once. Like-named read-outs stand apart in the source and are kept apart here. Where only a bound is given, the exact number is not on record here.

T1 sequence (P48039 whole entry): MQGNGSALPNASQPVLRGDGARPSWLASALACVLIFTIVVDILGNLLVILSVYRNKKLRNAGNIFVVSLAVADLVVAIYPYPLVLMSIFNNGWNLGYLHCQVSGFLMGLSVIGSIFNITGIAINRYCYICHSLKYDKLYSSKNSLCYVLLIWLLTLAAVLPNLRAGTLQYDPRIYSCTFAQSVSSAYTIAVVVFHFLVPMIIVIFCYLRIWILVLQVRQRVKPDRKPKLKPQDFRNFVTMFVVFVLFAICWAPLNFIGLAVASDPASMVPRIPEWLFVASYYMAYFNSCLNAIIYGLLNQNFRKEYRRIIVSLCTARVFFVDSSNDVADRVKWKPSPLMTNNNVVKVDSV

For orientation: Emax means the maximal effect, on the per cent scale that the assay sets. For `COc1ccc2[nH]c(I)c(CCNC(C)=O)c2c1` [2IMLT, 2-iodomelatonin, reference compound], the results for the “[35S]-GTPγS Emax (%)” value on hMT1 [1] (hMT1) and on hMT2 [2] were 108 ± 3% and 121 ± 13%, respectively. Besides, the maximum response (Emax) at hMT1 [1] (read-out: [35S]-GTPγS Emax (%), hMT1) is over 100%; at hMT1 [3] (setting [10]), about 100%; at hMT2 [4] (setting [11]), about 100%.

For `COc1cc(Br)c(Cc2cc(OC)c(OC)cc2CC(=O)OC(C)(C)C)cc1OC` [DIV879, Tert-butyl 2-(2-[(2-bromo-4,5-dimethoxyphenyl)methyl]-4,5-dimethoxyphenyl) Acetate], the Ki is 562 nM on hMT1 [5] and 7.24 nM on hMT2 [6] (setting [12]). Besides, the “Difference in affinity MT2 versus MT1” value on hMT2 [6] is reported as “at least 2 logs”. Moreover, the EC50 is over 10000 nM at hMT1 [1] (hMT1) and 12.3 nM on hMT2 [2]. On hMT2 [2], the Emax came to 58 ± 2%.

Take `COc1cc(I)c(Cc2cc(OC)c(OC)cc2CC(=O)OC(C)(C)C)cc1OC` [DIV880]: the Ki at hMT1 [5] is 832 nM; on hMT2 [6] (setting [12]), 9.55 nM; at hMT2 [6] (approximate range in text, read-out: affinity for MT2 (range given)), about 10 nM. For the same compound, the “Difference in affinity MT2 versus MT1” value at hMT2 [6] worked out at 2 logs. In addition, the EC50 at hMT1 [1] (hMT1) was 1260 nM; at hMT2 [2], 10.7 nM; at hMT1 [3] (hMT1) it was over 10000 nM; at hMT2 [4], 16.2 nM. Besides, the Emax at hMT1 [1] (setting [13]) stood at 10 ± 1%; at hMT2 [2] it was 67 ± 8%; on hMT2 [4] (setting [14]) it was 97 ± 1%. Also, the “effect on selectivity panel targets” value in assay [7] is reported as “less than 20%”.

Take `COc1ccc2[nH]c(-c3cccc4ccccc34)c(CCNC(=O)CI)c2n1` [S70254, 2-iodo-N-2-[5-methoxy-2-(naphthalen-1-yl)-1H-pyrrolo[3,2-b]pyridine-3-yl] Acetamide]: the results for the Ki at hMT1 [5] and on hMT2 [6] (setting [12]) were 661 nM and 1.86 nM, respectively. Further, the EC50 on hMT1 [1] (hMT1) was 79.4 nM; on hMT2 [2], 2.04 nM; on hMT1 [3] (hMT1) it was 1450 nM; at hMT2 [4] it was 33.9 nM. Also, the maximal response (Emax) at hMT1 [1] (setting [13]) is 15 ± 2%; on hMT2 [2], 43 ± 1%; at hMT1 [3] (CHO-K1, hMT1, read-out: TR-FRET-cAMP Emax (%)), 78 ± 12%; at hMT2 [4] (setting [14]), 73%. Moreover, on hMT2 [4], the “TR-FRET-cAMP Emax (%)” value stood at 76.5 ± 1%. Further, the “effect on selectivity panel targets” value in [7] is recorded as “less than 20%”.

On to `COc1ccc2[nH]cc(CCNC(=O)CI)c2c1` [SD6, N-[2-(5-methoxy-1H-indol-3-yl)ethyl]iodoacetamide], for which the “[35S]-GTPγS Emax (%)” value at hMT1 [1] (hMT1) was 115 ± 10%; on hMT2 [2], 114 ± 16%. The maximal effect (Emax) at hMT1 [1] (setting [13]) is over 100%; on hMT2 [2], over 100%; on hMT1 [3] (setting [10]), about 100%; at hMT2 [4] (setting [11]) it was about 100%. Moreover, the entries for the “TR-FRET-cAMP Emax (%)” value at hMT1 [3] (hMT1) and on hMT2 [4] were 103 ± 10% and 103 ± 1%, respectively. In addition, the Bmax on hMT1 [8] is reported as 276 fmol/mg of protein.

For `COc1ccc2[nH]c([125I])c(CCNC(C)=O)c2c1` [[^125I]-2IMLT, 2-[^125I]-iodomelatonin], the Bmax on hMT1 [8] was 688 fmol/mg of protein and 688 ± 153 fmol/mg of protein; at hMT2 [9], 1,998 ± 318 fmol/mg of protein.

What is called pKd is the negative decadic logarithm of the Kd, by convention in mol/L. `COc1ccc2[nH]c(-c3cccc4ccccc34)c(CCNC(=O)C[125I])c2n1` [[^125I]-S70254] displayed a pKd on hMT2 [9] (saturation 0.01–2 nM radioligand) of 9.61 ± 0.14. Further, the Bmax on hMT2 [9] is given as 1,778 ± 87 fmol/mg of protein.
